Reference: patent US8937050B2, “Methods and compositions for treatment of autism” (The Johns Hopkins University, priority 2011, dated 2015)

Columns and labels:
JNK pathway = assay: Immunoblot analysis of JNK phosphorylation; type: cell-based; conditions: normal human fibroblasts, within 24 hours; FIG. 2F
Method: Normal human fibroblasts were treated at various time points. Treatment was initiated at the indicated times prior to collection. The average of the maximum protein expression (within 24 hours) for three or more independent experiments is shown as fold change (drug treated/untreated). Actin (43 kDa) was the loading control. M denotes the marker lane. […] The * statistically significant increase in a measurement between drug treated and untreated or control samples or a statistically significant decrease in a measurement between drug treated and drug treated samples in the presence of SP600125 (p≦0.05) (n≧3 independent experiments unless otherwise noted) (Bars=SEM).

HSP70 and HSP90 = assay: Immunoblot analyses of HSP expression; type: cell-based, human; conditions: for heat shock response (HSR): normal human fibroblasts
Method: (§1) Expression of key components of the HSR, UPR, the autophagic response, and the antioxidant response were monitored at the transcriptional, translational, and/or post-translational level. […] Due to the transient nature of these responses, several components of each pathway were monitored at various time points within a 24 hour treatment. At least two normal human fibroblast lines were tested in three or more independent experiments. […] The average of the maximal increase in protein expression within a 24 hour time frame was also compared to the untreated sample. Activation of each pathway was assessed by an increase in one or more components of each pathway.
Normal human fibroblasts were treated at various time points within 24 hours and the average of the maximum protein expression of HSP70 (70 kDa) and HSP90 (90 kDa) is plotted as in FIG. 2F. Actin (43 kDa) was used as a loading control. (UT=untreated cells; * statistical significance (p≦0.05); Bars=SEM for n≧3 independent experiments).

[1] = system: BIP, phosphorylated eIF2α, XBP1; assay: Immunoblot analyses of UPR protein expression and XBP1 splicing; type: cell-based, human
Method: Cell lysates were collected in mammalian protein extraction reagent (m-PER; Thermo Scientific, Rockford, Ill.) plus 1×protease inhibitor (Sigma-Aldrich) and 1×Halt phosphatase inhibitor (Thermo Scientific). Denatured SDS-PAGE and immunoblot analyses were performed using the following antibodies: phosphorylated JNK and β-actin from Santa Cruz Biotechnology, HSP70, HSP90, BIP, phosphorylated eIF2α, and XBP1 from Cell Signaling, APG8 (Abgent, San Diego, Calif.), and SOD2 (Stressgen, Ann Arbor, Mich.). Quantitation was performed using a Fuji Intelligent Dark box II, FUJI LAS-1000 Lite software and Image Gauge v4.22 software (Tokyo, Japan).
Expression of key components of the HSR, UPR, the autophagic response, and the antioxidant response were monitored at the transcriptional, translational, and/or post-translational level. These responses are known to be transiently activated in response to various cellular stressors. The degree of induction of each component can vary depending on the metabolic state of the cell (e.g., confluency, cell passage number) (Kultz 2003; Lallemand et al., 1998; Westerheide et al., 2009). Due to the transient nature of these responses, several components of each pathway were monitored at various time points within a 24 hour treatment. At least two normal human fibroblast lines were tested in three or more independent experiments. […] The average of the maximal increase in protein expression within a 24 hour time frame was also compared to the untreated sample. Activation of each pathway was assessed by an increase in one or more components of each pathway.
UPR markers evaluated included the central UPR regulator glucose regulated protein 78 (BIP) and other components that are stimulated after the activation of the three ER transmembrane receptors: PKR-like ER kinase (PERK), inositol requiring 1 (IRE1), and activating transcription factor 6 (Fedoroff 2006). […] 2 alpha (eIF2a) is phosphorylated by PERK, attenuates general translation, and induces activating transcription factor 4 (ATF4). CHOP promotes reactivation of PERK. XBP1 mRNA is non-conventionally spliced by the endonuclease activity of IRE1 upon UPR activation.
Normal human fibroblasts were treated with drugs as indicated. The expression of the UPR genes ATF4, CHOP, and BIP was measured as described in FIG. 2E. […] Normal human fibroblasts were treated at various time points and the average of the maximum protein expression of BIP (78 kDa) and phosphorylated eIF2α (38 kDa) is plotted as in FIG. 2F. Actin (43 kDa) was used as a loading control and is the same blot as FIG. 2F. UT denotes untreated cells. M denotes marker lane. […] Normal human fibroblasts were treated. The expression of the unspliced form (XBP1-us; 33 kDa) and the activated and spliced form of XBP1 (XBP1-s; 54 kDa) was analyzed by immunoblotting. BP1-s is a larger protein than XBP1-us due to non-canonical mRNA splicing which results in a larger carboxy-terminal domain. […] The average of the maximum expression of XBP1-s (within 24 hrs.) is plotted as in FIG. 2F. Actin was used as a loading control.

BCN1 and ATG5 = assay: RT-PCR of autophagy genes; type: cell-based, human; conditions: for ATG5 mRNA levels / BCN1 mRNA levels: normal human fibroblasts, FIG. 5A
Method: (§2) Following the manufacturer's protocols, DNase I-treated cDNA was synthesized using Superscript III or Thermoscript reverse transcriptase (Invitrogen). PCR reactions were performed in duplicate on the Roche Lightcycler 3.5 (Basel, Switzerland) or the Bio-Rad iCycler (Hercules, Calif.) using Quantitech SYBR green PCR mix (Qiagen, Valencia, Calif.). GeNorm software calculated a normalization factor for each sample using the relative amounts of at least two of the following reference genes, β2-microglobulin, glyceraldehyde-6-phosphate, actin, and/or eukaryotic elongation factor 1A (Vandesompele et al., 2002).
as §1
To monitor activation of autophagy, the expression of three classical autophagy markers was examined. The three classical autophagy markers are: (i) beclin-1 (BCN1), (ii) autophagy protein 5 (ATG5), and (iii) microtubule-associated protein 1 light chain 3 (LC3 or APG8). […] Normal human fibroblasts were treated as indicated. The expression of BCN1 and ATG5 were measured as described in FIG. 2E. After TSA treatment, the levels of ATG5 mRNA were measured in two independent experiments in duplicate.

NFE2L2, HMOX1, and SOD2 = assay: RT-PCR of antioxidant genes; type: cell-based, human; conditions: for HMOX1 mRNA levels / NFE2L2 mRNA levels / SOD2 mRNA levels: normal human fibroblasts, 18 hours, FIG. 5C
Method: as §2
The expression of three key components was examined—(i) nuclear factor erythroid 2-like 2 (NFE2L2), (ii) heme oxygenase 1 (HMOX1), and (iii) superoxide dismutase 2 (SOD2). […] Normal human fibroblasts were treated for 18 hours. The expression of NFE2L2, HMOX1, and SOD2 was measured as described in FIG. 2E.

[2] = system: class I and class II HDAC; assay: Colorimetric HDAC activity assay in HeLa or fibroblast lysates; type: biochemical; conditions: HeLa and human fibroblast lysates; two concentrations (treatment concentration and ten times); FIG. 6A-B
Method: A colorimetric HDAC activity assay was performed in triplicate using 100-200 μg of HeLa or fibroblast lysates following the manufacturer's protocol (K331; Biovision, Mountain View, Calif.).
Whether inhibition of class I and class II HDAC activities is a shared biochemical function that could account for the effects of all four small molecules was examined. Using lysates from HeLa cells and primary human fibroblasts, an in vitro colorimetric assay of HDAC activity was performed. Two concentrations of each small molecule were used. The first concentration was that used to treat primary human fibroblasts in the experiments reported herein, which minimally affects growth. The second concentration was ten times the first concentration and is lethal in cell culture. […] (* p≦0.00009; paired t-test; Bars=SEM for n≧3 independent experiments).

SIRT1 = SIRT1 protein expression in normal human fibroblasts; type: cell-based
[3] = normal human fibroblasts, FIG. 4B

4-phenylbutyrate [4PBA] was tested, and the “JNK pathway (JNK phosphorylation)” value (JNK pathway) was “activated”, the “heat shock response (HSR)” value (HSP70 and HSP90) was “activated” and the “BIP expression at the translational level” value (shortened to “BIP expression”) [1, 3] was “significantly increased”. The “ATG5 mRNA levels” value (BCN1 and ATG5) was “increased”, the “BCN1 mRNA levels” value (BCN1 and ATG5) was “increased” and the “HMOX1 mRNA levels” value (NFE2L2, HMOX1, and SOD2) was “significantly decreased”. The “NFE2L2 mRNA levels” value (NFE2L2, HMOX1, and SOD2) was “increased”, the “SOD2 mRNA levels” value (NFE2L2, HMOX1, and SOD2) was “increased” and the “HDAC activity compared to untreated lysates” value [2] was “significantly decreased”. For the same compound, the SIRT1 protein expression (SIRT1) was “no marked changes”.
`NC(=O)NO` [HU, hydroxyurea] was tested, and the “JNK pathway (JNK phosphorylation)” value (JNK pathway) was “activated”, the “heat shock response (HSR)” value (HSP70 and HSP90) was “activated” and the “BIP expression” value [1, 3] was “significantly increased”. The “ATG5 mRNA levels” value (BCN1 and ATG5) was “increased”, the “BCN1 mRNA levels” value (BCN1 and ATG5) was “not reproducibly changed” and the “HMOX1 mRNA levels” value (NFE2L2, HMOX1, and SOD2) was “significantly increased”. The “NFE2L2 mRNA levels” value (NFE2L2, HMOX1, and SOD2) was “increased”, the “SOD2 mRNA levels” value (NFE2L2, HMOX1, and SOD2) was “increased” and the “HDAC activity compared to untreated lysates” value [2] was “neither concentration of HU nor SFN reduced”. The SIRT1 protein expression (SIRT1) was “no marked changes”.
With `C[S@@+]([O-])CCCCN=C=S` [SFN, 1-isothiocyanato-4R-(methylsulfinyl)butane] the “JNK pathway (JNK phosphorylation)” value (JNK pathway) was “activated”, the “total HSP70 protein levels increase” value (HSP70 and HSP90; in vitro sulforaphane studies) was 3-4 fold and the “total HSP90 protein levels increase” value (HSP70 and HSP90; in vitro sulforaphane studies) was 3-4 fold. The “heat shock response (HSR)” value (HSP70 and HSP90) was “activated”, the “BIP increase at the translational level” value ([1]; in vitro sulforaphane studies) was 2-3 fold and the “amount of spliced XBP1 protein increase” value ([1]; in vitro sulforaphane studies) was 3-4. The “total amount of XBP1 protein increase” value ([1]; in vitro sulforaphane studies) was 3-4, the “BIP expression” value [1, 3] was “significantly increased” and the eIF2α phosphorylation [1, 3] was “modestly increased”. The “pro-survival capabilities of all three UPR branches” value ([1]; transcriptional, post-transcriptional, translational and post-translational levels) was “activated”, the “ATG5 mRNA levels increase” value (BCN1 and ATG5; in vitro sulforaphane studies) was 3 fold and the “BCN1 mRNA levels increase” value (BCN1 and ATG5; in vitro sulforaphane studies) was 5 fold. The “ATG5 mRNA levels” value (BCN1 and ATG5) was “increased”, the “BCN1 mRNA levels” value (BCN1 and ATG5) was “increased” and the “expression of HMOX1 increase” value (NFE2L2, HMOX1, and SOD2; in vitro sulforaphane studies) was 6 fold. For the same compound, the “expression of NFE2L2 increase” value (NFE2L2, HMOX1, and SOD2; in vitro sulforaphane studies) was 3 fold, the “expression of SOD2 increase” value (NFE2L2, HMOX1, and SOD2; in vitro sulforaphane studies) was 4 fold and the “HMOX1 mRNA levels” value (NFE2L2, HMOX1, and SOD2) was “significantly increased”. The “NFE2L2 mRNA levels” value (NFE2L2, HMOX1, and SOD2) was “increased”, the “SOD2 mRNA levels” value (NFE2L2, HMOX1, and SOD2) was “increased” and the “HDAC activity compared to untreated lysates” value [2] was “neither concentration of HU nor SFN reduced”. The SIRT1 protein expression (SIRT1) was “no marked changes”.
`CC(/C=C/C(=O)NO)=C\[C@@H](C)C(=O)c1ccc(N(C)C)cc1` [TSA, trichostatin A] was tested, and the “JNK pathway (JNK phosphorylation)” value (JNK pathway) was “activated”, the “heat shock response (HSR)” value (HSP70 and HSP90) was “activated” and the “BIP expression” value [1, 3] was “significantly increased”. For the same compound, the “ATG5 mRNA levels” value (BCN1 and ATG5) was “increased”, the “BCN1 mRNA levels” value (BCN1 and ATG5) was “increased” and the “HMOX1 mRNA levels” value (NFE2L2, HMOX1, and SOD2) was “significantly increased”. The “NFE2L2 mRNA levels” value (NFE2L2, HMOX1, and SOD2) was “increased”, the “SOD2 mRNA levels” value (NFE2L2, HMOX1, and SOD2) was “increased” and the “HDAC activity compared to untreated lysates” value [2] was “significantly decreased”. The SIRT1 protein expression (SIRT1) was “no marked changes”.
